Source: ChEMBL document CHEMBL2434930, “Design, synthesis and biological evaluation of novel anti-cytokine 1,2,4-triazine derivatives” (Bioorg Med Chem, 2013)
Active and inactive are the calls of the source. The rule behind the calls is not given here.

How the values were obtained:
PBMC [1] = assay: Antiinflammatory activity in human PBMC assessed as inhibition of LPS-induced IL1-beta production at 10 uM treated 30 mins before LPS challenge measured after 6 hrs by ELISA; assay type: functional
PBMC [2] = assay: Antiinflammatory activity in human PBMC assessed as inhibition of LPS-induced TNFalpha production at 10 uM treated 30 mins before LPS challenge measured after 6 hrs by ELISA; assay type: functional
MCF7 = assay: Cytotoxicity against human MCF7 cells assessed as cell viability at 10 to 20 uM by MTT assay; assay type: cell-based; details: mcf7, 20 µM
PBMC [3] = assay: Cytotoxicity against human PBMC assessed as cell viability at 10 to 20 uM by MTT assay; assay type: cell-based
[4] = target: T1, MAP kinase p38 (Homo sapiens) (UniProt O15264+Q15759+Q16539+P53778); assay: Inhibition of etoposide-induced p38 MAPK activation in human MCF7 cells at 20 uM treated 30 mins before etoposide challenge measured after 3 hrs by Western blot analysis; assay type: cell-based
Rattus norvegicus [5] = assay: Antiinflammatory activity in rat assessed as inhibition of carrageenan-induced paw edema at 10 mg/kg, ip administered 1 hr before carrageenan challenge measured at 2 hrs relative to control; assay type: functional; details: route intraperitoneal
[6] = target: T1, MAP kinase p38 (Homo sapiens); assay: Inhibition of etoposide-induced p38 MAPK activation in human MCF7 cells assessed as phosphorylated ATF-2 level at 20 uM treated 30 mins before etoposide challenge measured after 3 hrs by Western blot analysis; assay type: cell-based
Rattus norvegicus [7] = assay: Antiinflammatory activity in rat assessed as inhibition of carrageenan-induced paw edema at 10 mg/kg, ip administered 1 hr before carrageenan challenge measured at 3 hrs relative to control; assay type: functional; details: route intraperitoneal
Rattus norvegicus [8] = assay: Antiinflammatory activity in rat assessed as inhibition of carrageenan-induced paw edema at 10 mg/kg, ip administered 1 hr before carrageenan challenge measured at 1 hr relative to control; assay type: functional; details: route intraperitoneal
Rattus norvegicus [9] = assay: Antiinflammatory activity in rat assessed as inhibition of carrageenan-induced paw edema at 10 mg/kg, ip administered 1 hr before carrageenan challenge measured at 4 hrs relative to control; assay type: functional; details: route intraperitoneal
Rattus norvegicus [10] = assay: Antiinflammatory activity in rat assessed as inhibition of carrageenan-induced paw edema at 50 mg/kg, ip administered 1 hr before carrageenan challenge measured at 1 hr relative to control; assay type: functional; details: route intraperitoneal
Rattus norvegicus [11] = assay: Antiinflammatory activity in rat assessed as inhibition of carrageenan-induced paw edema at 50 mg/kg, ip administered 1 hr before carrageenan challenge measured at 3 hrs relative to control; assay type: functional; details: route intraperitoneal
Rattus norvegicus [12] = assay: Antiinflammatory activity in rat assessed as inhibition of carrageenan-induced paw edema at 50 mg/kg, ip administered 1 hr before carrageenan challenge measured at 4 hrs relative to control; assay type: functional; details: route intraperitoneal
Rattus norvegicus [13] = assay: Antiinflammatory activity in rat assessed as inhibition of carrageenan-induced paw edema at 50 mg/kg, ip administered 1 hr before carrageenan challenge measured at 2 hrs relative to control; assay type: functional; details: route intraperitoneal

Row | SMILES | inhibition at 10 µM (PBMC [1]) | inhibition at 10 µM (PBMC [2]) | Activity (MCF7) | Activity (PBMC [3]) | other results
1 | Oc1ccc(-c2nc(-c3ccc(F)cc3)c(-c3ccncc3)[nH]2)cc1 [SB-202190] | 93.4% | 87.2% |  |  | 
2 | COc1ccc(-c2nnc(N/N=C/c3ccc([N+](=O)[O-])cc3)nc2-c2ccc(OC)cc2)cc1 | 15.5% | 37.6% | Non-toxic | Non-toxic | 
3 | COc1ccc(-c2nnc(N/N=C/c3ccncc3)nc2-c2ccc(OC)cc2)cc1 | 60.8% | 41.8% | Non-toxic | Non-toxic | 
4 | COc1ccc(-c2nnc(N/N=C/c3ccc(OC)c(OC)c3)nc2-c2ccc(OC)cc2)cc1 | 39.9% | 45% | Non-toxic | Non-toxic | 
5 | COc1ccc(-c2nnc(N/N=C/c3cc4ccccc4[nH]3)nc2-c2ccc(OC)cc2)cc1 | 82.3% | 53.3% | Non-toxic | Non-toxic | 
6 | COc1ccc(-c2nnc(N/N=C/c3cccc(O)c3O)nc2-c2ccc(OC)cc2)cc1 | 78.2% | 46.7% | Non-toxic | Non-toxic | 
7 | COc1ccc(-c2nnc(N/N=C/c3c(Cl)cccc3[N+](=O)[O-])nc2-c2ccc(OC)cc2)cc1 | 2.81% | 47.9% | Non-toxic | Non-toxic | 
8 | COc1ccc(-c2nnc(N/N=C/c3ccco3)nc2-c2ccc(OC)cc2)cc1 | 84% | 71.1% | Non-toxic | Non-toxic | 
9 | COc1ccc(/C=N/Nc2nnc(-c3ccc(OC)cc3)c(-c3ccc(OC)cc3)n2)cc1 | 35.9% | 48.5% | Non-toxic | Non-toxic | 
10 | COc1ccc(-c2nnc(N/N=C/c3cccs3)nc2-c2ccc(OC)cc2)cc1 | 81.8% | 57.5% | Non-toxic | Non-toxic | 
11 | COc1ccc(-c2nnc(N/N=C/c3ccc4c(c3)OCO4)nc2-c2ccc(OC)cc2)cc1 | 86.9% | 52.2% | Non-toxic | Non-toxic | 
12 | COc1ccc(-c2nnc(N/N=C/c3cccc(OC)c3OC)nc2-c2ccc(OC)cc2)cc1 | 89.8% | 71.8% | Non-toxic | Non-toxic | inhibition [4]: inactive; inhibition in vivo at 10 mg/kg (Rattus norvegicus [5]): 45.3%; inhibition [6]: Active; inhibition in vivo at 10 mg/kg (Rattus norvegicus [7]): 64.2%; inhibition in vivo at 10 mg/kg (Rattus norvegicus [8]): 38.8%; inhibition in vivo at 10 mg/kg (Rattus norvegicus [9]): 75.6%
13 | COc1ccc(-c2nnc(N/N=C/c3ccccc3)nc2-c2ccc(OC)cc2)cc1 | 71.5% | 53.1% | Non-toxic | Non-toxic | 
14 | COc1ccc(-c2nnc(N/N=C/c3ccc(F)cc3)nc2-c2ccc(OC)cc2)cc1 | 27.9% | 34.5% | Non-toxic | Non-toxic | 
15 | COc1ccc(-c2nnc(N/N=C/c3ccc(O)c(OC)c3)nc2-c2ccc(OC)cc2)cc1 | 84.3% | 46.1% | Non-toxic | Non-toxic | 
16 | COc1ccc(-c2nnc(N/N=C/c3ccc(Cl)cc3Cl)nc2-c2ccc(OC)cc2)cc1 | 86.9% | 70% | Non-toxic | Non-toxic | 
17 | COc1ccc(-c2nnc(N/N=C/c3ccc(O)cc3O)nc2-c2ccc(OC)cc2)cc1 | 51.8% | 32.7% | Non-toxic | Non-toxic | 
18 | COc1ccc2c(c1)c(CC(=O)O)c(C)n2C(=O)c1ccc(Cl)cc1 [INDOMETHACIN] |  |  |  |  | inhibition in vivo at 50 mg/kg (Rattus norvegicus [10]): 19.2%; inhibition in vivo at 50 mg/kg (Rattus norvegicus [11]): 48.2%; inhibition in vivo at 50 mg/kg (Rattus norvegicus [12]): 68.2%; inhibition in vivo at 50 mg/kg (Rattus norvegicus [13]): 28.4%
